Values quoted from earlier work, collected in patent publication US20140228287A1, “1-[(3-CYANO-PYRIDIN-2-YL)METHYL]-3-METHYL-7-(2-BUTYN-1-YL)-8-[3-(R)-AMINO-PIPERIDIN-1-YL]-AXANTHINE FOR THE TREATMENT OF A METABOLIC DISORDER OF A PREDOMINANTLY CARNIVOROUS NON-HUMAN ANIMAL” (BOEHRINGER INGELHEIM VETMEDICA GMBH, priority 2010, published 2014).

Tests used:
GLP-1 = conditions: after administration to rats and to cats; cited from earlier work
plasma glucagon = conditions: in vivo; cited from earlier work

SMILES | effect of GLP-1 (GLP-1) | plasma glucagon concentration in cats (plasma glucagon)
CC#CCn1c(N2CCC[C@@H](N)C2)nc2c1c(=O)n(Cc1nc(C)cc3ccccc13)c(=O)n2C [1-[(3-Methyl-isochinoline-1-yl)methyl]-3-methyl-7-(2-butin-1-yl)-8-((R)-3-amino-piperidine-1-yl)-xanthine] | the effect of GLP-1 could be prolonged | 
N#Cc1ccc(NCCNCC(=O)N2CCC[C@H]2C#N)nc1 [NVP-DPP728] |  | reduce the plasma glucagon concentration
